The subject of the test is Mus musculus. Description: Tested for inhibitory activity against CT strain of Trypanosoma rhodesiense infected mice after administration at 106 mg/kg; Not active. Format: functional, organism-based. Further details: dose 106 mg/kg; call rule not given here.

With `COc1ccc(CC(N)C(=O)NC2C(C)OC(n3cnc4c(N(C)C)ncnc43)C2O)cc1` (stereo unspecified), the IC50 result is given as “Not Active”.

(Values after ChEMBL document CHEMBL1121769, “5'Chloropuromycin. Inhibition of protein synthesis and antitrypanosomal activity” (J Med Chem, 1981).)
